Key:
Assay in all cases: relative viability (nuclei count vs DMSO), 5 days (fraction); higher = more cells survive
Etoposide + Tozasertib = compound: COc1cc([C@@H]2c3cc4c(cc3[C@@H](O[C@@H]3O[C@@H]5CO[C@@H](C)O[C@H]5[C@H](O)[C@H]3O)[C@H]3COC(=O)[C@H]23)OCO4)cc(OC)c1O [Etoposide] + Cc1cc(Nc2cc(N3CCN(C)CC3)nc(Sc3ccc(NC(=O)C4CC4)cc3)n2)n[nH]1 [Tozasertib] (partner 0.1 µM)
Method in brief: (§1)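 Relative viability equals treated-well nuclei counts divided by vehicle-well nuclei counts. Counts came from 4× images of lung cancer cell lines grown in 1536-well plates for 5 days after pin-tool dosing on the day after seeding. Dosing used one drug alone or a fixed anchor-drug dose plus five library-drug doses (not always all listed) in √10 steps, and values are medians of duplicate plates.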

Bleomycin + Pictilisib = compound: CC1=C(N=C(N=C1N)[C@H](CC(=O)N)NC[C@@H](C(=O)N)N)C(=O)N[C@@H]([C@H](C2=CN=CN2)OC3C(C(C(C(O3)CO)O)O)OC4C(C(C(C(O4)CO)O)OC(=O)N)O)C(=O)N[C@H](C)[C@H]([C@H](C)C(=O)N[C@@H]([C@@H](C)O)C(=O)NCCC5=NC(=CS5)C6=NC(=CS6)C(=O)NCCC[S+](C)C)O [Bleomycin] + CS(=O)(=O)N1CCN(Cc2cc3nc(-c4cccc5[nH]ncc45)nc(N4CCOCC4)c3s2)CC1 [Pictilisib] (partner 1 µM); details: main component drawn
Method in brief: as §1

Etoposide + Olaparib = compound: COc1cc([C@@H]2c3cc4c(cc3[C@@H](O[C@@H]3O[C@@H]5CO[C@@H](C)O[C@H]5[C@H](O)[C@H]3O)[C@H]3COC(=O)[C@H]23)OCO4)cc(OC)c1O [Etoposide] + O=C(c1cc(Cc2n[nH]c(=O)c3ccccc23)ccc1F)N1CCN(C(=O)C2CC2)CC1 [Olaparib] (partner 8 µM)
Method in brief: as §1

Bleomycin + Foretinib = compound: CC1=C(N=C(N=C1N)[C@H](CC(=O)N)NC[C@@H](C(=O)N)N)C(=O)N[C@@H]([C@H](C2=CN=CN2)OC3C(C(C(C(O3)CO)O)O)OC4C(C(C(C(O4)CO)O)OC(=O)N)O)C(=O)N[C@H](C)[C@H]([C@H](C)C(=O)N[C@@H]([C@@H](C)O)C(=O)NCCC5=NC(=CS5)C6=NC(=CS6)C(=O)NCCC[S+](C)C)O [Bleomycin] + COc1cc2c(Oc3ccc(NC(=O)C4(C(=O)Nc5ccc(F)cc5)CC4)cc3F)ccnc2cc1OCCCN1CCOCC1 [Foretinib] (partner 0.25 µM); details: main component drawn
Method in brief: as §1

Row | Cell Line | relative viability (Etoposide + Tozasertib; first compound 0.01 µM) | relative viability (Etoposide + Tozasertib; first compound 0.03162 µM) | relative viability (Etoposide + Tozasertib; first compound 0.1 µM) | relative viability (Etoposide + Tozasertib; first compound 0.3162 µM) | relative viability (Etoposide + Tozasertib; first compound 1 µM) | relative viability (Bleomycin + Pictilisib; first compound 0.01 µM) | relative viability (Bleomycin + Pictilisib; first compound 0.03162 µM) | relative viability (Bleomycin + Pictilisib; first compound 0.1 µM) | relative viability (Bleomycin + Pictilisib; first compound 0.3162 µM) | relative viability (Bleomycin + Pictilisib; first compound 1 µM) | relative viability (Etoposide + Olaparib; first compound 0.01 µM) | relative viability (Etoposide + Olaparib; first compound 0.03162 µM) | relative viability (Etoposide + Olaparib; first compound 0.1 µM) | relative viability (Etoposide + Olaparib; first compound 0.3162 µM) | relative viability (Etoposide + Olaparib; first compound 1 µM) | relative viability (Bleomycin + Foretinib; first compound 0.01 µM) | relative viability (Bleomycin + Foretinib; first compound 0.03162 µM) | relative viability (Bleomycin + Foretinib; first compound 0.1 µM) | relative viability (Bleomycin + Foretinib; first compound 0.3162 µM) | relative viability (Bleomycin + Foretinib; first compound 1 µM)
1 | PC-3 [JPC-3] | 0.841 | 0.882 | 0.928 | 0.853 | 0.707 | 0.681 | 0.681 | 0.768 | 0.569 | 0.466 | 0.992 | 0.928 | 1.14 | 1.07 | 0.794 | 0.929 | 1.24 | 0.95 | 0.75 | 0.541
2 | NCI-H1437 | 0.433 | 0.4 | 0.429 | 0.293 | 0.318 | 0.47 | 0.407 | 0.24 | 0.146 | 0.224 | 0.597 | 0.646 | 0.56 | 0.394 | 0.323 | 1.18 | 1.12 | 0.959 | 0.695 | 0.619
3 | NCI-H520 | 0.427 | 0.408 | – | 0.462 | 0.396 | 0.298 | 0.301 | 0.287 | 0.256 | 0.238 | 0.296 | 0.328 | 0.437 | 0.293 | 0.225 | 0.677 | 0.742 | 0.743 | 0.37 | 0.537
4 | NCI-H1666 | 0.551 | 0.592 | 0.485 | 0.356 | 0.372 | 0.428 | 0.375 | 0.391 | 0.183 | 0.256 | 0.702 | 0.642 | 0.758 | 0.529 | 0.497 | 0.763 | 0.675 | 0.533 | 0.44 | 0.398
5 | NCI-H1651 | 0.675 | 0.692 | 0.547 | 0.159 | 0.156 | 0.576 | 0.517 | 0.44 | 0.249 | 0.153 | 0.175 | 0.188 | 0.202 | 0.138 | 0.0965 | 0.716 | 0.499 | 0.496 | 0.31 | 0.213
6 | NCI-H1755 | 0.57 | 0.577 | 0.565 | 0.483 | 0.44 | 0.429 | 0.498 | 0.385 | 0.282 | 0.247 | 0.838 | 0.945 | 0.791 | 0.799 | 0.422 | 0.838 | 0.976 | 0.948 | 0.638 | 0.592
7 | NCI-H727 | 0.623 | 0.677 | – | 0.605 | 0.692 | 0.375 | 0.299 | 0.268 | 0.239 | 0.357 | 0.681 | 0.632 | 0.55 | 0.689 | 0.478 | 0.902 | 0.711 | 0.641 | – | 0.705
8 | HARA | 0.149 | 0.112 | 0.127 | 0.0757 | 0.0743 | 0.333 | 0.557 | 0.428 | 0.27 | 0.184 | 0.698 | 0.764 | 0.652 | 0.376 | 0.206 | 0.794 | 0.793 | 0.777 | 0.397 | 0.379
9 | NCI-H647 | 0.224 | 0.0009 | 0.271 | 0.205 | 0.112 | 0.251 | 0.254 | 0.191 | 0.105 | 0.0791 | 0.459 | 0.516 | 0.33 | 0.0871 | 0.0592 | 0.482 | 0.308 | 0.212 | 0.0979 | 0.073
10 | NCI-H2347 | 0.518 | 0.554 | 0.419 | 0.433 | 0.291 | 0.605 | 0.599 | 0.532 | 0.271 | 0.575 | 0.55 | 0.543 | 0.58 | 0.353 | 0.411 | 0.852 | 0.97 | 0.628 | 0.319 | 0.692
11 | LCLC-97TM1 | 0.201 | 0.2 | 0.208 | 0.19 | 0.144 | 0.141 | 0.119 | 0.141 | 0.0993 | 0.0953 | 0.423 | 0.458 | 0.229 | 0.113 | 0.0808 | 0.912 | 0.809 | 0.628 | 0.274 | 0.176
12 | EPLC-272H | 0.336 | 0.213 | 0.211 | 0.235 | 0.112 | 0.288 | 0.352 | 0.265 | 0.137 | 0.161 | 0.833 | 0.685 | 0.704 | 0.474 | 0.254 | 0.61 | 0.653 | 0.51 | 0.17 | 0.1
13 | NCI-H1915 | 0.438 | 0.459 | 0.473 | 0.353 | 0.308 | 0.575 | 0.65 | 0.535 | 0.247 | 0.146 | 0.261 | 0.268 | 0.309 | 0.213 | 0.194 | 0.929 | 0.885 | 0.763 | 0.431 | 0.257
14 | NCI-H3122 | 0.441 | 0.324 | 0.262 | 0.281 | 0.159 | 0.642 | 0.591 | 0.577 | 0.243 | 0.36 | 0.456 | 0.587 | 0.634 | 0.297 | 0.21 | 0.956 | 0.99 | 0.914 | 0.483 | 0.357
15 | NCI-H441 | 0.511 | 0.541 | 0.418 | 0.289 | 0.264 | – | 0.439 | 0.482 | 0.316 | 0.267 | 0.516 | 0.463 | 0.393 | 0.164 | 0.155 | 0.72 | 0.613 | 1.08 | 0.623 | 0.46

Reference: the supplement of paper PMC10307832
